In general, IC50 refers to the concentration at which inhibition is half-maximal. Low values mean inhibition by little substance, high ones a need for much substance.

human 11β-HSD1 microsome fraction, sequence (P28845 whole entry): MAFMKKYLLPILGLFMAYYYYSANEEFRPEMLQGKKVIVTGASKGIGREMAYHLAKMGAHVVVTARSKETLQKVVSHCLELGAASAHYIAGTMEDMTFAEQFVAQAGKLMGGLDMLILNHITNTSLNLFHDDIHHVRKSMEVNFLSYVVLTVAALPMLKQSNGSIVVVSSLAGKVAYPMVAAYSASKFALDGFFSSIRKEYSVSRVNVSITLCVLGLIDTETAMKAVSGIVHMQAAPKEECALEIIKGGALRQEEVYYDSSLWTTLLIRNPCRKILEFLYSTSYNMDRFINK

For the experiment, the target named is human 11β-HSD1 microsome fraction (Homo sapiens, UniProt P28845). Nature of the experiment: Enzymatic 11Beta-HSD1 test (SPA-based detection). The conditions noted are these: [1,2-3H]-cortisone, NADPH, 37° C. for 1 hour. Format: biochemical. How it is done: Enzymatic 11Beta-HSD1 Test:
To measure the activity of the compounds, an SPA-based detection method (Solly et al. 2005) was employed. First of all, 20 μl of the human 11β-HSD1 microsome fraction (0.2 μg of protein), prepared in 50 mM HEPES, 0.1% BSA (w/v), were applied to a plate with 384 wells. The test compounds (0.09 μl) were applied to the assay plate in 100% DMSO. The reaction was started by addition of 20 μl of [1,2-^3H]-cortisone (0.1 μCi/[…]) in assay buffer comprising 25 mM HEPES, 100 mM KCl, 5 mM NaCl, 2 mM MgCl2 and 0.25 mM NADPH. The plate was agitated at 37° C. for 1 hour. At the same time, a stop solution comprising 20 mg/ml SPA-PVT beads, 1.6 mg/ml monoclonal cortisol antibody and 0.01 mM SSR110887 (inhibitor from the Biovitrium patent) in 50 mM HEPES, 1 M NaCl and 1 M KCl was stirred at room temperature. To stop the reaction, 25 μl of the stop solution were added to each well. The plate was agitated gently at room temperature for 1 further hour and then centrifuged at 500 gav for 1 min, in order that the SPA beads could settle out. The plate was then read in a Wallac-1450-Microbeta unit with a standard SPA program (counting time 1 min/well). The comparative compound was glycyrrhetinic acid.
Protein and radioactive substrate were dispensed with a Biomek FX unit (Beckman Coulter) for handling liquids. The test compounds were added with a Cybi-Well equipped with a 90 nl pin tool (CyBio).
Lit.: Solly S, Mundt S S, Zokian H J, Juy-Fang Ding G, Hermanowski-Vosatka A, Strulovici B and Zheng W. High-throughput screening of 11β-Hydroxysteroid dehydrogenase type 1 in scintillation proximity format. Assay Drug Dev Technol 2005; 3:377-384.
With `CC1(C)OC(N[C@@H](CCO)c2ccccc2F)=NS(=O)(=O)C1Cc1ccc(C2CCN(C3CC3)CC2)cc1` (stereo partly drawn) [Example 28, (S)-3-{5-[4-(1-Cyclopropyl-piperidin-4-yl)-benzyl]-6,6-dimethyl-4,4-dioxo-5,6-dihydro-4H-4lambda6-[1,4,3]oxathiazin-2-ylamino}-3-(2-fluorophenyl)-propan-1-ol], inhibition was half-maximal at 9 nM (IC50). In other words, the single-digit nanomolar range.

Turning to `Cc1ccc(F)cc1[C@H](CCO)NC1=NS(=O)(=O)C(Cc2ccccc2)C(C)(C)O1` (stereo partly drawn) [Example 19, (S)-3-(5-Benzyl-6,6-dimethyl-4,4-dioxo-5,6-dihydro-4H-4lambda6-[1,4,3]oxathiazin-2-ylamino)-3-(5-fluoro-2-methyl-phenyl)-propan-1-ol], the IC50 came to 4 nM.

On to `CNCCCc1ccc(CC2C(C)(C)OC(N[C@@H](CCO)c3ccccc3F)=NS2(=O)=O)cc1` (stereo partly drawn) [Example 33, (S)-3-{6,6-Dimethyl-5-[4-(3-methylamino-propyl)-benzyl]-4,4-dioxo-5,6-dihydro-4H-4lambda6-[1,4,3]oxathiazin-2-ylamino}-3-(2-fluorophenyl)-propan-1-ol], for which the IC50 amounted to 30 nM.

Consider `CC1(C)OC(N[C@@H](CCO)c2ccccc2F)=NS(=O)(=O)C1Cc1ccc(-c2ccccc2)cc1` (stereo partly drawn) [Example 10, (S)-3-(5-Biphenyl-4-ylmethyl-6,6-dimethyl-4,4-dioxo-5,6-dihydro-4H-4lambda6-[1,4,3]oxathiazin-2-ylamino)-3-(2-fluoro-phenyl)-propan-1-ol], for which the concentration for half-maximal inhibition (IC50) came to 4 nM. Against the preceding compound, the IC50 is about 7.5-fold lower.

Turning to `CC1(C)OC(N[C@@H](CCO)c2ccccc2F)=NS(=O)(=O)[C@@H]1Cc1ccc(C2CCN(C3CC3)CC2)cc1` [Example 41, (S)-3-{(R)-5-[4-(1-Cyclopropyl-piperidin-4-yl)-benzyl]-6,6-dimethyl-4,4-dioxo-5,6-dihydro-4H-4lambda6-[1,4,3]oxathiazin-2-ylamino}-3-(2-fluoro-phenyl)-propan-1-ol], the IC50 was 32 nM.

For `CC1(C)OC(N[C@@H](CCO)c2cc(F)ccc2F)=NS(=O)(=O)C1Cc1ccccc1` (stereo partly drawn) [Example 17, (S)-3-(5-Benzyl-6,6-dimethyl-4,4-dioxo-5,6-dihydro-4H-4lambda6-[1,4,3]oxathiazin-2-ylamino)-3-(2,5-difluorophenyl)-propan-1-ol], the IC50 was determined as 4 nM.

Compound `CC1(C)OC(N[C@@H](CCO)c2ccccc2F)=NS(=O)(=O)C1(C)Cc1ccc(Br)cc1` (stereo partly drawn) [Example 4, (S)-3-[5-(4-Bromobenzyl)-5,6,6-trimethyl-4,4-dioxo-5,6-dihydro-4H-4lambda6-[1,4,3]oxathiazin-2-ylamino]-3-(2-fluorophenyl)-propan-1-ol] registered a half-inhibitory concentration (IC50) of 3 nM. This IC50 and that of the compound before are within 1.5-fold of each other.

For the compound `CN(CCO)CCCc1ccc(CC2C(C)(C)OC(N[C@@H](CCO)c3ccccc3F)=NS2(=O)=O)cc1` (stereo partly shown) [Example 36], the IC50 is 38 nM.

In the case of `CC1(C)OC(N[C@@H](CCO)c2ccccc2F)=NS(=O)(=O)C1Cc1ccc(CCCN2CCOCC2)cc1` (stereo partly shown) [Example 31], it took 17 nM to reach half-maximal inhibition (IC50).

Turning to `C[C@H](NC1=NS(=O)(=O)C(Cc2ccc(C3CCN(C4CC4)CC3)cc2)C(C)(C)O1)c1ccccc1F` (stereo partly drawn) [Example 43, {5-[4-(1-Cyclopropyl-piperidin-4-yl)-benzyl]-6,6-dimethyl-4,4-dioxo-5,6-dihydro-4H-4lambda6-[1,4,3]oxathiazin-2-yl}-[(S)-1-(2-fluorophenyl)-ethyl]-amine], 11 nM corresponded to half-maximal inhibition (IC50). Compared with the last compound, the IC50 is about 1.5-fold lower.

With `CC1(C)OC(N[C@@H](CCO)c2ccccc2F)=NS(=O)(=O)C1Cc1cccc2ccccc12` (stereo partly drawn) [Example 21, (S)-3-(6,6-Dimethyl-5-naphthalen-1-ylmethyl-4,4-dioxo-5,6-dihydro-4H-4lambda6-[1,4,3]oxathiazin-2-ylamino)-3-(2-fluorophenyl)-propan-1-ol], the IC50 stood at 5 nM.

In the case of `CC1(C)OC(N[C@@H](CCO)c2ccccc2F)=NS(=O)(=O)[C@@H]1Cc1ccc(C2CCNCC2)cc1` [Example 34, (S)-3-[(R)-6,6-Dimethyl-4,4-dioxo-5-(4-piperidin-4-yl-benzyl)-5,6-dihydro-4H-4lambda6-[1,4,3]oxathiazin-2-ylamino]-3-(2-fluorophenyl)-propan-1-ol], the IC50 is 8 nM. This IC50 is about 1.6-fold higher than that of the compound before.

As to `C[C@H](NC1=NS(=O)(=O)C(Cc2ccc(C3CCN(C4COC4)CC3)nc2)C(C)(C)O1)c1ccccc1F` (stereo partly drawn) [Example 56, [6,6-Dimethyl-5-(1′-oxetan-3-yl-1′,2′,3′,4′,5′,6′-hexahydro-[2,4′]bipyridinyl-5-ylmethyl)-4,4-dioxo-5,6-dihydro-4H-4lambda6-[1,4,3]oxathiazin-2-yl]-[(S)-1-(2-fluorophenyl)-ethyl]-amine], the half-inhibitory concentration (IC50) turned out to be 24 nM.

In turn, `C[C@H](NC1=NS(=O)(=O)[C@@H](Cc2ccc(OCC(C)(C)N)cc2)C(C)(C)O1)c1ccccc1F` [Example 55, {(S)-5-[4-(2-Amino-2-methyl-propoxy)-benzyl]-6,6-dimethyl-4,4-dioxo-5,6-dihydro-4H-4lambda6-[1,4,3]oxathiazin-2-yl}-[(S)-1-(2-fluorophenyl)-ethyl]-amine] showed an IC50 of 8 nM.

Turning to `C[C@H](NC1=NS(=O)(=O)C(Cc2ccc(C3CCNCC3)cc2)C(C)(C)O1)c1ccccc1F` (stereo partly drawn) [Example 38, [6,6-Dimethyl-4,4-dioxo-5-(4-piperidin-4-yl-benzyl)-5,6-dihydro-4H-4lambda6-[1,4,3]oxathiazin-2-yl]-[(S)-1-(2-fluorophenyl)-ethyl]-amine], the IC50 is 7 nM.

Turning to `CC1(C)OC(N[C@@H](CCO)c2ccccc2F)=NS(=O)(=O)C1Cc1ccc(C2CCN(CCC(F)(F)F)CC2)cc1` (stereo partly drawn) [Example 29, (S)-3-(6,6-Dimethyl-4,4-dioxo-5-{4-[1-(3,3,3-trifluoropropyl)-piperidin-4-yl]-benzyl}-5,6-dihydro-4H-4lambda6-[1,4,3]oxathiazin-2-ylamino)-3-(2-fluorophenyl)-propan-1-ol], the half-maximal inhibitory concentration (IC50) came out at 7 nM.

Compound `C[C@H](NC1=NS(=O)(=O)[C@H](Cc2ccc(C3CCN(C)CC3)cc2)C(C)(C)O1)c1ccccc1F` [Example 50] showed an IC50 of 52 nM.

In turn, `CC1(C)OC(N[C@@H](CCO)c2ccccc2F)=NS(=O)(=O)C1Cc1ccc(C2=CCNCC2)cc1` (stereo partly drawn) [Example 23, (S)-3-{6,6-Dimethyl-4,4-dioxo-5-[4-(1,2,3,6-tetrahydro-pyridin-4-yl)-benzyl]-5,6-dihydro-4H-4lambda6-[1,4,3]oxathiazin-2-ylamino}-3-(2-fluoro-phenyl)-propan-1-ol] returned an IC50 of 17 nM.

In turn, `C[C@H](NC1=NS(=O)(=O)C(Cc2ccc(N3CCN(C(C)(C)C)CC3)cc2)C(C)(C)O1)c1ccccc1F` (stereo partly drawn) [Example 39, {5-[4-(4-tert-Butyl-piperazin-1-yl)-benzyl]-6,6-dimethyl-4,4-dioxo-5,6-dihydro-4H-4lambda6-[1,4,3]oxathiazin-2-yl}-[(S)-1-(2-fluorophenyl)-ethyl]-amine] had an IC50 of 17 nM.

`CC1(C)OC(N[C@@H](CCO)c2ccccc2F)=NS(=O)(=O)C1Cc1ccc(C2CCN(CCCO)CC2)cc1` (stereo partly shown) [Example 26] showed an IC50 of 16 nM. The IC50 values of the last two compounds are within 1.5-fold of each other.

Consider `C[C@H](NC1=NS(=O)(=O)[C@H](Cc2ccc(NCCN(C)C)cc2)C(C)(C)O1)c1ccccc1F` [Example 52, N-(4-{(R)-2-[(S)-1-(2-fluorophenyl)-ethylamino]-dimethyl-4,4-dioxo-5,6-dihydro-4H-4lambda6-[1,4,3]oxathiazin-5-ylmethyl}-phenyl)-N′,N′,- dimethyl-ethane-1,2-diamine], for which the midpoint of inhibition, the IC50, lay at 62 nM. Compared with the last compound, the IC50 is about 3.9-fold higher.

`C[C@H](NC1=NS(=O)(=O)[C@@H](Cc2ccc(C3CCN(C4COC4)CC3)cc2)C(C)(C)O1)c1ccccc1F` [Example 53, {(S)-6,6-Dimethyl-5-[4-(1-oxetan-3-yl-piperidin-4-yl)-benzyl]-4,4-dioxo-5,6-dihydro-4H-4lambda6-[1,4,3]oxathiazin-2-yl}-[(S)-1-(2-fluorophenyl)-ethyl]-amine] yielded an IC50 of 9 nM.

The compound `CC1(C)OC(N[C@@H](CCO)c2ccccc2)=NS(=O)(=O)C1Cc1ccc(Cl)cc1` (stereo partly drawn) [Example 1, (S)-3-[5-(4-Chlorobenzyl)-6,6-dimethyl-4,4-dioxo-5,6-dihydro-4H-4lambda6-[1,4,3]oxathiazin-2-ylamino]-3-phenyl-propan-1-ol] showed an IC50 of 5 nM.

Take `CC1(C)OC(N[C@@H](CCO)c2ccccc2)=NS(=O)(=O)C1Cc1ccccc1` (stereo partly drawn) [Example 2, (S)-3-(5-Benzyl-6,6-dimethyl-4,4-dioxo-5,6-dihydro-4H-4lambda6-[1,4,3]oxathiazin-2-ylamino)-3-phenyl-propan-1-ol]: half-maximal inhibition (IC50) required 7 nM. This IC50 and that of the compound before are within 1.5-fold of each other.

`C[C@H](NC1=NS(=O)(=O)[C@@H](Cc2ccc(C3CCN(C)CC3)cc2)C(C)(C)O1)c1ccccc1F` [Example 51] yielded an IC50 of 6 nM.

These data come from patent US8846666B2, “Oxathiazine derivatives which are substituted with benzyl or heteromethylene groups, method for producing them, their use as medicine and drug containing said derivatives and the use thereof” (Sanofi, priority 2011, dated 2014).
